Test results: ChEMBL document CHEMBL1150475, “Synthesis and biological activity of new optically active 2-oxaisocephems: 3-(N-alkylpyridinium-4-thio)methyl derivatives” (1994)
Values after ≈ are worked out from the molar mass of the structure shown.

Tests used:
Pseudomonas aeruginosa [1] = assay: Antibacterial activity against gram- negative Pseudomonas aeruginosa ATCC 10145; format: functional
Escherichia coli [2] = assay: Antibacterial activity against gram- negative Escherichia coli NIHJ JC-2; format: functional
Staphylococcus aureus [3] = assay: Antibacterial activity against gram- positive Staphylococcus aureus FDA 209P; format: functional
Staphylococcus aureus [4] = assay: Antibacterial activity against gram- positive Staphylococcus aureus MRSA 57; format: functional
Escherichia coli [5] = assay: Antibacterial activity against Escherichia coli No.29
Mus musculus [6] = species on record: Mus musculus; assay: Antibacterial activity against mice infected with Staphylococcus aureus Smith.; format: functional
Mus musculus [7] = species on record: Mus musculus; assay: Antibacterial activity against mice infected with MRSA 5120 challenged with a dose of 7.6*10e7 cells/mouse; format: functional
Mus musculus [8] = species on record: Mus musculus; assay: Antibacterial activity against mice infected with Escherichia coli No.29; format: functional
Staphylococcus aureus [9] = assay: Antibacterial activity against Staphylococcus aureus Smith.
Staphylococcus aureus [10] = assay: Antibacterial activity against gram- positive Staphylococcus aureus Methicillin resistant Staphylococcus aureus 57; format: functional
Staphylococcus aureus [11] = assay: microbe, parasite or virus in culture
Description: Antibacterial activity against Methicillin resistant Staphylococcus aureus 5129

Escherichia coli [12] = assay: Antibacterial activity against Escherichia coli NIHJ JC-2; format: functional
Pseudomonas aeruginosa [13] = assay: Antibacterial activity against Pseudomonas aeruginosa ATCC 10145; format: functional
Staphylococcus aureus [14] = assay: Antibacterial activity against Staphylococcus aureus Smith
Staphylococcus aureus [15] = assay: microbe, parasite or virus in culture; remark: listed apart in the source
Description: Antibacterial activity against Methicillin resistant Staphylococcus aureus 5038

Mus musculus [16] = species on record: Mus musculus; assay: Antibacterial activity against mice infected with MRSA 5038; format: functional
Staphylococcus aureus [17] = assay: microbe, parasite or virus in culture; remark: listed apart in the source
Description: Antibacterial activity against Methicillin resistant Staphylococcus aureus 5120

Mus musculus [18] = species on record: Mus musculus; assay: Antibacterial activity against mice infected with MRSA 5129 challenged with a dose of 1.31*10e8 cells/mouse; format: functional
Mus musculus [19] = species on record: Mus musculus; assay: Antibacterial activity against mice infected with Staphylococcus aureus Smith challenged with a dose of 1.32*10e7 cells/mouse; format: functional
Mus musculus [20] = species on record: Mus musculus; assay: Antibacterial activity against mice infected with Escherichia coli No.29 challenged with a dose of 1.35*10e6 cells/mouse; format: functional
Mus musculus [21] = species on record: Mus musculus; assay: Antibacterial activity against mice infected with MRSA 5038 challenged with a dose of 1*10e7 cells/mouse; format: functional
Staphylococcus aureus [22] = assay: Antibacterial activity against MRSA 5038.
Pseudomonas aeruginosa [23] = assay: Antibacterial activity against gram- negative Pseudomonas […] ATCC 10145; format: functional
Staphylococcus aureus [24] = assay: Antibacterial activity against MRSA 5129
Escherichia coli [25] = assay: Antibacterial activity against Escherichia coli No.29; remark: listed apart in the source
Staphylococcus aureus [26] = assay: Antibacterial activity against Staphylococcus aureus Smith.; remark: listed apart in the source

## CO/N=C(/C(=O)N[C@@H]1C(=O)N2C(C(=O)O)=C(CSc3cc[n+](CC(C)=O)cc3)OC[C@H]12)c1csc(N)n1.O=S(=O)([O-])O
Pseudomonas aeruginosa [1]
  MIC: 12.5 µg/mL
Escherichia coli [2]
  MIC: < 0.025 µg/mL
Staphylococcus aureus [3]
  MIC: 0.39 µg/mL
Staphylococcus aureus [4]
  MIC: 100 µg/mL

## CCC(=O)C[n+]1ccc(SCC2=C(C(=O)O)N3C(=O)[C@@H](NC(=O)/C(=N/OC4CCCC4)c4csc(N)n4)[C@H]3CO2)cc1.O=S(=O)([O-])O
Pseudomonas aeruginosa [1]
  MIC: 6.25 µg/mL
Escherichia coli [2]
  MIC: 0.39 µg/mL
Escherichia coli [5]
  MIC: 0.39 µg/mL
Staphylococcus aureus [3]
  MIC: 0.2 µg/mL
Mus musculus [6]
  ED50: 0.22 mg/kg
Mus musculus [7]
  ED50: 1 mg/kg
Mus musculus [8]
  ED50: 0.15 mg/kg
Staphylococcus aureus [9]
  MIC: 0.2 µg/mL
Staphylococcus aureus [4]
  MIC: 6.25 µg/mL

## CO[C@@]1(NC(=O)CSC(F)F)C(=O)N2C(C(=O)O)=C(CSc3nnnn3CCO)CO[C@@H]21 [FLOMOXEF]
Pseudomonas aeruginosa [1]
  MIC: > 100 µg/mL
Escherichia coli [2]
  MIC: 0.1 µg/mL (≈ 0.201 µM)
Staphylococcus aureus [10]
  MIC: 25 µg/mL (≈ 50.4 µM)
Escherichia coli [5]
  MIC: 0.1 µg/mL (≈ 0.201 µM)
Staphylococcus aureus [3]
  MIC: 0.2 µg/mL (≈ 0.403 µM)
Mus musculus [8]
  ED50: 0.43 mg/kg
Staphylococcus aureus [9]
  MIC: 0.39 µg/mL (≈ 0.786 µM)

## CN[C@H](CC(C)C)C(=O)N[C@H]1C(=O)N[C@@H](CC(N)=O)C(=O)N[C@H]2C(=O)N[C@H]3C(=O)N[C@H](C(=O)N[C@H](C(=O)O)c4cc(O)cc(O)c4-c4cc3ccc4O)[C@H](O)c3ccc(c(Cl)c3)Oc3cc2cc(c3O[C@@H]2O[C@H](CO)[C@@H](O)[C@H](O)[C@H]2O[C@H]2C[C@](C)(N)[C@H](O)[C@H](C)O2)Oc2ccc(cc2Cl)[C@H]1O [VANCOMYCIN]
Staphylococcus aureus [11]
  MIC: 0.78 µg/mL (≈ 0.538 µM)
Escherichia coli [12]
  MIC: > 100 µg/mL
Pseudomonas aeruginosa [13]
  MIC: > 100 µg/mL
Staphylococcus aureus [14]
  MIC: 0.78 µg/mL (≈ 0.538 µM)
Staphylococcus aureus [15]
  MIC: 1.56 µg/mL (≈ 1.08 µM)
Mus musculus [16]
  ED50: 2.7 mg/kg
Staphylococcus aureus [17]
  MIC: 0.78 µg/mL (≈ 0.538 µM)

## CO/N=C(/C(=O)N[C@@H]1C(=O)N2C(C(=O)O)=C(CSc3cc[n+](C)cc3)OC[C@H]12)c1csc(N)n1.O=S(=O)([O-])O
Pseudomonas aeruginosa [1]
  MIC: 6.25 µg/mL
Escherichia coli [2]
  MIC: < 0.025 µg/mL
Staphylococcus aureus [3]
  MIC: 0.2 µg/mL
Staphylococcus aureus [4]
  MIC: 50 µg/mL

## C[n+]1ccc(SCC2=C(C(=O)O)N3C(=O)[C@@H](NC(=O)/C(=N/OC4CCCC4)c4csc(N)n4)[C@H]3CO2)cc1.O=S(=O)([O-])O
Mus musculus [18]
  ED50: 3.91 mg/kg
Escherichia coli [2]
  MIC: 0.39 µg/mL
Mus musculus [19]
  ED50: 0.08 mg/kg
Mus musculus [20]
  ED50: 0.09 mg/kg
Mus musculus [21]
  ED50: 3.4 mg/kg
Staphylococcus aureus [3]
  MIC: 0.05 µg/mL
Staphylococcus aureus [22]
  MIC: 3.13 µg/mL
Pseudomonas aeruginosa [23]
  MIC: 3.13 µg/mL
Staphylococcus aureus [24]
  MIC: 6.25 µg/mL
Escherichia coli [25]
  MIC: 0.39 µg/mL
Staphylococcus aureus [26]
  MIC: 0.39 µg/mL
Staphylococcus aureus [4]
  MIC: 3.13 µg/mL
